What all share (experiment): NCI 60 single concentration growth inhibition
Assay type in all cases: cell-based, human

Experiment [1] relates to ACHN. The settings on record: Homo sapiens, Renal cancer, read-out: GI%. In short, it runs like this: (§1)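 Growth measured by sulforhodamine B protein staining (515 nm) after 48 h drug exposure at 37 °C, following 24 h plating in RPMI 1640 with 5% FBS and 2 mM L-glutamine. Compounds first tested at one 10 µM dose, then five-dose series (10-fold or ½ log steps); percent growth relative to time-zero and untreated wells.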

For experiment [2], the system named is SK-MEL-2. The settings on record: Homo sapiens, SK-MEL-2, Melanoma, read-out: GI%. In outline: as §1
In experiment [3] the test system is MCF7. The settings on record: Homo sapiens, MCF7, Breast cancer, read-out: GI%. In outline: as §1
Experiment [4] relates to SK-MEL-28. The settings on record: Homo sapiens, SK-MEL-28, Melanoma, read-out: GI%. In short, it runs like this:
as §1

The test system of experiment [5] is M14. The note with it: Homo sapiens, M14, Melanoma, read-out: GI%. In short, it runs like this: as §1
Experiment [6] has as its system HS 578T. The settings on record: Homo sapiens, Breast cancer, read-out: GI%. In outline: as §1
Experiment [7] relates to SF-268. The settings on record: Homo sapiens, SF-268, CNS cancer, read-out: GI%. In outline:
as §1

Experiment [8] deals with UACC-257. The note with it: Homo sapiens, UACC-257, Melanoma, read-out: GI%. In short, it runs like this: as §1
Experiment [9] concerns NCI-H23. The note with it: Homo sapiens, NCI-H23, Non-small cell lung cancer, read-out: GI%. In outline: as §1
Experiment [10] has as its system HCT-116. The settings on record: Homo sapiens, HCT-116, Colon cancer, read-out: GI%. In short, it runs like this:
as §1

In experiment [11] the test system is MOLT-4. The settings on record: Homo sapiens, MOLT-4, Leukemia, read-out: GI%. In outline:
(§2)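 Single-dose screen: cells in RPMI 1640 with 5% FBS and 2 mM L-glutamine, pre-grown 24 h, then exposed to 10 µM compound for 48 h at 37 °C. Protein was measured by TCA fixation and sulforhodamine B staining at 515 nm, and percent growth was taken against time-zero and untreated wells.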

Experiment [12] relates to RXF 393. The settings on record: Homo sapiens, RXF 393, Renal cancer, read-out: GI%. In outline:
as §1

In experiment [13] the test system is KM12. The note with it: Homo sapiens, KM12, Colon cancer, read-out: GI%. In outline:
as §1

Experiment [14] concerns SN12C. The settings on record: Homo sapiens, Renal cancer, read-out: GI%. In outline: as §1
Experiment [15] deals with SF-295. The settings on record: Homo sapiens, SF-295, CNS cancer, read-out: GI%. In outline:
as §1

Experiment [16] concerns MDA-MB-468. The settings on record: Homo sapiens, MDA-MB-468, Breast cancer, read-out: GI%. In short, it runs like this: as §1
In experiment [17] the test system is T-47D. The settings on record: Homo sapiens, T47D, Breast cancer, read-out: GI%. In outline: as §1
The test system of experiment [18] is SR. The settings on record: Homo sapiens, Leukemia, read-out: GI%. In outline: as §2
Experiment [19] has as its system PC-3. The note with it: Homo sapiens, PC-3, Prostate cancer, read-out: GI%. In outline:
as §1

Experiment [20] concerns SK-OV-3. The settings on record: Homo sapiens, SK-OV-3, Ovarian cancer, read-out: GI%. In outline:
as §1

In experiment [21] the test system is A549/ATCC. The note with it: Homo sapiens, Non-small cell lung cancer, read-out: GI%. In outline:
as §1

Experiment [22] concerns NCI-H226. The note with it: Homo sapiens, NCI-H226, Non-small cell lung cancer, read-out: GI%. In outline: as §1

For `COC(=O)COc1ccc(C=NNC(=O)Cn2c(-c3ccc(OC)cc3)nc3cc(Cl)c(Cl)cc32)cc1OC` [Compound 10p, Methyl-2-(4-((2-(2-(5,6-dichloro-2-(4-methoxyphenyl)-1H-benzo[d]imidazol-1-yl)acetyl)hydrazono)methyl)-2-methoxyphenoxy)acetate], the inhibition at 10 µM is 95.2% in experiment [1]; 24.1% in [2]; 25.8% in experiment [3]; 6.03% in experiment [4]; below 5% in experiment [5]; 118% in experiment [6]. The inhibition at 10 µM in experiment [7] is below 5%; in experiment [8], 22.7%; in [9], below 5%; in experiment [10] it was 25.1%; in [11], 13.7%; in experiment [12], 186%. The inhibition at 10 µM in experiment [13] was below 5%; in experiment [14], 99.5%; in experiment [15] it was below 5%; in experiment [16], 159%; in [17] it was 81.1%; in [18] it was 92.8%. For the same compound, the inhibition at 10 µM is 79.8% in experiment [19], below 5% in [20], below 5% in experiment [21] and below 5% in [22].

The values are drawn from publication PMC11844072, “Novel 5,6-dichlorobenzimidazole derivatives as dual BRAFWT and BRAFV600E inhibitors: design, synthesis, anti-cancer activity and molecular dynamics simulations” (BMC Chemistry, 2025).
